Values quoted from earlier work in US11957711B2 (priority 2021, dated 2024).

Experiments:
[1] = parts per million in gas; gas generated from HTH and carbon dioxide

SMILES: ClOCl [CL2O, Dichlorine monoxide]
- maximum allowable concentration [1]: around 1.25 ppm
- Solubility in water: 143 g/100 g
- Solubility in other solvent (CCL4): soluble in CCL4

SMILES: OCl [HCLO, Hypochlorous acid]
- time to kill the germs (germs): a few seconds
